Data taken from US12545639B2, “3-substituted phenylamidine compounds, preparation and use thereof” (PI INDUSTRIES LTD., priority 2019, dated 2026).

Legend:
Pyricularia oryzae = assay: microbe, parasite or virus in culture; type: cell-based; conditions: 168 h, read-out: control compared to the untreated check (radial growth)
Alternaria solani = Alternaria solani (early blight of tomato/potato) in vitro test, radial growth on potato dextrose agar; type: cell-based; conditions: 168 h, 300 ppm in potato dextrose agar, 25° C., 60% relative humidity, seven days, read-out: control compared to the untreated check (radial growth)
[1] = tested on: Septoria lycopersici/Corynespora cassicola (CORYCA); assay: Septoria lycopersici/Corynespora cassicola (CORYCA) (leaf spot of tomato) in vitro test, radial growth on potato dextrose agar; type: cell-based; conditions: 168 h, 300 ppm in potato dextrose agar, 25° C., 70% relative humidity, seven days, read-out: control compared to the untreated check (radial growth)
Phakopsora pachyrhizi = Phakopsora pachyrhizi test in soybean, preventive, in vivo on plants; conditions: in Glycine max, read-out: Efficacy (% control), disease severity compared to the untreated check
Rhizoctonia solani = Rhizoctonia solani (rice sheath blight/potato black scurf) in vitro test, radial growth on potato dextrose agar; type: cell-based; conditions: 168 h, 300 ppm in potato dextrose agar, 25° C., 60% relative humidity, seven days, read-out: control compared to the untreated check (radial growth)
Botrytis cinerea = Botrytis cinerea (gray mold) in vitro test, radial growth on potato dextrose agar; type: cell-based; conditions: 168 h, 300 ppm in potato dextrose agar, 22° C., 90% relative humidity, seven days, read-out: control compared to the untreated check (radial growth)

CCN(C)C=Nc1cc(F)cc(Nc2c(C)cccc2F)c1C [Compound 121, N-ethyl-N′-(5-fluoro-3-((2-fluoro-6-methylphenyl)amino)-2-methylphenyl)-N-methylformimidamide]
≥ 70%: inhibition of growth at 300 ppm (Pyricularia oryzae) | inhibition of growth at 300 ppm (Alternaria solani) | inhibition of growth at 300 ppm [1] | pest or weed control at 500 ppm (Phakopsora pachyrhizi)

CCN(C)C=Nc1cc(C)cc(N(C)c2c(C)cccc2F)c1Cl [Compound 138, N′-(2-chloro-3-((2-fluoro-6-methylphenyl)(methyl)amino)-5-methylphenyl)-N-ethyl-N-methylformimidamide]
≥ 70%: inhibition of growth at 300 ppm (Pyricularia oryzae) | inhibition of growth at 300 ppm (Rhizoctonia solani) | inhibition of growth at 300 ppm (Alternaria solani) | inhibition of growth at 300 ppm [1]

CCN(C)C=Nc1cc(C)cc(Nc2ccc(Cl)cc2F)c1Cl [Compound 134, N′-(2-chloro-3-((4-chloro-2-fluorophenyl)amino)-5-methylphenyl)-N-ethyl-N-methylformimidamide]
≥ 70%: inhibition of growth at 300 ppm (Pyricularia oryzae) | inhibition of growth at 300 ppm (Rhizoctonia solani) | inhibition of growth at 300 ppm (Botrytis cinerea) | pest or weed control at 500 ppm (Phakopsora pachyrhizi)

CCN(C)C=Nc1cc(C)cc(Nc2ccccc2F)c1C [Compound 6, N-ethyl-N′-(3-((2-fluorophenyl)amino)-2,5-dimethylphenyl)-N-methylformimidamide]
≥ 70%: inhibition of growth at 300 ppm (Pyricularia oryzae) | inhibition of growth at 300 ppm (Rhizoctonia solani) | inhibition of growth at 300 ppm (Alternaria solani) | inhibition of growth at 300 ppm [1]

CCN(C)C=Nc1cc(Cl)cc(Nc2ccccc2C)c1C [Compound 185, N′-(5-chloro-2-methyl-3-(o-tolylamino)phenyl)-N-ethyl-N-methylformimidamide]
≥ 70%: inhibition of growth at 300 ppm (Pyricularia oryzae) | inhibition of growth at 300 ppm (Rhizoctonia solani) | inhibition of growth at 300 ppm (Botrytis cinerea) | inhibition of growth at 300 ppm (Alternaria solani) | pest or weed control at 500 ppm (Phakopsora pachyrhizi)

CCN(C)C=Nc1cc(C)cc(Nc2cccc(OC)c2)c1Cl [Compound 42, N′-(2-chloro-3-((3-methoxyphenyl)amino)-5-methylphenyl)-N-ethyl-N-methylformimidamide]
≥ 70%: inhibition of growth at 300 ppm (Pyricularia oryzae) | inhibition of growth at 300 ppm (Rhizoctonia solani) | inhibition of growth at 300 ppm (Botrytis cinerea) | inhibition of growth at 300 ppm (Alternaria solani) | pest or weed control at 500 ppm (Phakopsora pachyrhizi)

CCN(C)C=Nc1cc(F)cc(NCc2ccc(F)c(C)c2)c1C [Compound 182, N-ethyl-N′-(5-fluoro-3-((4-fluoro-3-methylbenzyl)amino)-2-methylphenyl)-N-methylformimidamide]
≥ 70%: inhibition of growth at 300 ppm (Pyricularia oryzae) | inhibition of growth at 300 ppm (Rhizoctonia solani) | inhibition of growth at 300 ppm (Botrytis cinerea) | inhibition of growth at 300 ppm (Alternaria solani) | pest or weed control at 500 ppm (Phakopsora pachyrhizi)

CCN(C)C=Nc1cc(F)cc(Cc2cc(F)ccc2C)c1C [Compound 231, N-ethyl-N′-(5-fluoro-3-(5-fluoro-2-methylbenzyl)-2-methylphenyl)-N-methylformimidamide]
≥ 70%: inhibition of growth at 300 ppm (Pyricularia oryzae) | inhibition of growth at 300 ppm (Rhizoctonia solani) | inhibition of growth at 300 ppm (Botrytis cinerea) | inhibition of growth at 300 ppm (Alternaria solani) | pest or weed control at 500 ppm (Phakopsora pachyrhizi)

CCN(C)C=Nc1cc(OC)cc(Nc2cccc(C(F)(F)F)n2)c1C [Compound 272, N-ethyl-N′-(5-methoxy-2-methyl-3-((6-(trifluoromethyl)pyridin-2-yl)amino)phenyl)-N-methylformimidamide]
≥ 70%: inhibition of growth at 300 ppm (Pyricularia oryzae) | inhibition of growth at 300 ppm (Alternaria solani) | inhibition of growth at 300 ppm [1]

CCc1cccc(Nc2cc(Cl)cc(N=CN(C)CC)c2C)n1 [Compound 243, N′-(5-chloro-3-((6-ethylpyridin-2-yl)amino)-2-methylphenyl)-N-ethyl-N-methylformimidamide]
≥ 70%: inhibition of growth at 300 ppm (Pyricularia oryzae) | inhibition of growth at 300 ppm (Rhizoctonia solani) | inhibition of growth at 300 ppm (Alternaria solani) | inhibition of growth at 300 ppm [1]

CCN(C)C=Nc1cc(F)cc(Nc2cccc(OC)c2)c1C [Compound 30, N-ethyl-N′-(5-fluoro-3-((3-methoxyphenyl)amino)-2-methylphenyl)-N-methylformimidamide]
≥ 70%: inhibition of growth at 300 ppm (Pyricularia oryzae) | inhibition of growth at 300 ppm (Rhizoctonia solani) | inhibition of growth at 300 ppm (Alternaria solani) | inhibition of growth at 300 ppm [1] | pest or weed control at 500 ppm (Phakopsora pachyrhizi)

CCN(C)C=Nc1cc(F)cc(Cc2ccc(C#N)cc2)c1C [Compound 202, N′-(3-(4-cyanobenzyl)-5-fluoro-2-methylphenyl)-N-ethyl-N-methylformimidamide]
≥ 70%: inhibition of growth at 300 ppm (Pyricularia oryzae) | inhibition of growth at 300 ppm (Rhizoctonia solani) | inhibition of growth at 300 ppm (Botrytis cinerea) | inhibition of growth at 300 ppm (Alternaria solani) | pest or weed control at 500 ppm (Phakopsora pachyrhizi)

CCN(C)C=Nc1cc(OC)cc(Nc2ccccc2OC(F)(F)F)c1C [Compound 300, N-ethyl-N′-(5-methoxy-2-methyl-3-((2-(trifluoromethoxy)phenyl)amino)phenyl)-N-methylformimidamide]
≥ 70%: inhibition of growth at 300 ppm (Pyricularia oryzae) | inhibition of growth at 300 ppm (Rhizoctonia solani) | inhibition of growth at 300 ppm (Alternaria solani) | inhibition of growth at 300 ppm [1] | pest or weed control at 500 ppm (Phakopsora pachyrhizi)

CCN(C)C=Nc1cc(Cl)cc(Cc2ccc(F)c(Cl)c2)c1C [Compound 130, N′-(5-chloro-3-(3-chloro-4-fluorobenzyl)-2-methylphenyl)-N-ethyl-N-methylformimidamide]
≥ 70%: inhibition of growth at 300 ppm (Pyricularia oryzae) | inhibition of growth at 300 ppm (Rhizoctonia solani) | inhibition of growth at 300 ppm (Alternaria solani) | inhibition of growth at 300 ppm [1] | pest or weed control at 500 ppm (Phakopsora pachyrhizi)

CCN(C)C=Nc1cc(F)cc(Cc2cc(F)ccc2Cl)c1C [Compound 229, N′-(3-(2-chloro-5-fluorobenzyl)-5-fluoro-2-methylphenyl)-N-ethyl-N-methylformimidamide]
≥ 70%: inhibition of growth at 300 ppm (Pyricularia oryzae) | inhibition of growth at 300 ppm (Rhizoctonia solani) | inhibition of growth at 300 ppm (Botrytis cinerea) | inhibition of growth at 300 ppm (Alternaria solani) | pest or weed control at 500 ppm (Phakopsora pachyrhizi)

CCN(C)C=Nc1cc(F)cc(N(C)c2ccc(F)cc2F)c1C [Compound 80, N′-(3-((2,4-difluorophenyl)(methyl)amino)-5-fluoro-2-methylphenyl)-N-ethyl-N-methylformimidamide]
≥ 70%: inhibition of growth at 300 ppm (Pyricularia oryzae) | inhibition of growth at 300 ppm (Rhizoctonia solani) | inhibition of growth at 300 ppm (Botrytis cinerea) | inhibition of growth at 300 ppm (Alternaria solani) | pest or weed control at 500 ppm (Phakopsora pachyrhizi)

CCN(C)C=Nc1cc(F)cc(Cc2ccc(F)cc2Br)c1C [Compound 230, N′-(3-(2-bromo-4-fluorobenzyl)-5-fluoro-2-methylphenyl)-N-ethyl-N-methylformimidamide]
≥ 70%: inhibition of growth at 300 ppm (Pyricularia oryzae) | inhibition of growth at 300 ppm (Rhizoctonia solani) | inhibition of growth at 300 ppm (Botrytis cinerea) | inhibition of growth at 300 ppm (Alternaria solani) | pest or weed control at 500 ppm (Phakopsora pachyrhizi)

CCN(C)C=Nc1cc(Cl)cc(Nc2ccccc2F)c1C [Compound 165, N′-(5-chloro-3-((2-fluorophenyl)amino)-2-methylphenyl)-N-ethyl-N-methylformimidamide]
≥ 70%: inhibition of growth at 300 ppm (Pyricularia oryzae) | inhibition of growth at 300 ppm (Rhizoctonia solani) | inhibition of growth at 300 ppm (Alternaria solani) | inhibition of growth at 300 ppm [1]

CCN(C)C=Nc1cc(Cl)cc(N(C)c2cccc(C)c2)c1C [Compound 160, N′-(5-chloro-2-methyl-3-(methyl(m-tolyl)amino)phenyl)-N-ethyl-N-methylformimidamide]
≥ 70%: inhibition of growth at 300 ppm (Pyricularia oryzae) | inhibition of growth at 300 ppm (Botrytis cinerea) | inhibition of growth at 300 ppm (Alternaria solani) | pest or weed control at 500 ppm (Phakopsora pachyrhizi)

CCN(C)C=Nc1cc(F)cc(N(C)c2cccc(C(F)(F)F)n2)c1C [Compound 291, N-ethyl-N′-(5-fluoro-2-methyl-3-(methyl(6-(trifluoromethyl)pyridin-2-yl)amino)phenyl)-N-methylformimidamide]
≥ 70%: inhibition of growth at 300 ppm (Pyricularia oryzae) | inhibition of growth at 300 ppm (Alternaria solani) | inhibition of growth at 300 ppm [1]

CCN(C)C=Nc1cc(F)cc(Cc2ccc(Br)c(C)c2)c1C [Compound 232, N′-(3-(4-bromo-3-methylbenzyl)-5-fluoro-2-methylphenyl)-N-ethyl-N-methylformimidamide]
≥ 70%: inhibition of growth at 300 ppm (Pyricularia oryzae) | inhibition of growth at 300 ppm (Rhizoctonia solani) | inhibition of growth at 300 ppm (Botrytis cinerea) | inhibition of growth at 300 ppm (Alternaria solani) | pest or weed control at 500 ppm (Phakopsora pachyrhizi)
